How the values were obtained:
T-47D cells [1] = assay: Cell cycle arrest and apoptosis by propidium iodide flow cytometry in T-47D cells; type: cell-based, Human; settings: 48 h
Description: T-47D, a breast cancer cell line, was maintained and harvested as described in Example 221. 5×10^5 Cells were treated with 0.2 μM of 4-(3-methoxyanilino)-2-(2-pyridinyl)-6-(trifluoromethyl)pyrimidine for 48 h at 37° C. As a control, cells were also incubated with equivalent amount of solvent (DMSO). Cells were harvested at 1,200 rpm and then transferred to 12×75 mm polystyrene tubes. Cells were then resuspended in 500 μl of 1% Na Citrate, 0.1% Triton X-100, and 50 μg/ml of propidium iodide and incubated at room temperature for 30 min followed by flow cytometer analysis. All flow cytometry analyses were performed on FACScalibur (Becton Dickinson) using Cell Quest analysis software. The x-axis plotted the amount of fluorescence and the y-axis is plotted the number of cells with the indicated fluorescence. The T-47D control cell population profile is seen in FIG. 1A and the increase in G2/M DNA content cells that is seen when treated with 4-(3-methoxyanilino)-2-(2-pyridinyl)-6-(trifluoromethyl)pyrimidine at 0.2 μM is seen in FIG. 1B. An increase in the sub-diploid DNA content of cells (FIG. 1) is also seen to increase from 2% to 25% with compound treatment. The sub-diploid amount of DNA is indicative of apoptotic cells which have undergone DNA degradation or fragmentation.

T47D cells = assay: Clonogenic survival of T47D cells; type: cell-based; settings: Homo sapiens, 48 h treatment, colonies after 7-10 days, read-out: IC50 inhibition of clonogenic survival (colony forming ability), T47D
Description: T47D and MX-1 cells were grown according to the conditions according conditions recommended by American Type Culture Collection. In a well of a 96 well plate, 30,000 cells were seeded and treated with tested compound at the indicated concentrations for 48 hr in a 5% CO2-95% humidity incubator at 37° C. Control wells were treated with the same amount of solvent (DMSO) as the compound samples. After the 48 h treatment, the supernatant was removed to a sterile culture tube and the wells washed with phosphate buffered saline, and the adherent cells trypsinized for 5 min. The trypsinzed cells were added to the culture supernatant, cells were collected (1,200 rpm, 10 min), washed with phosphate buffered saline, and resuspended in fresh media. The cells were counted for trypan blue negative cells, and the cells diluted with fresh media to 1,000 cells/ml. To a well of a 24-well plate, 0.1 ml of the cell suspension was added along with 1 ml of fresh media (cell suspensions were passed through a 22G needle several times just before plating to form single cell suspensions). Plates are incubated in a 5% CO2-95% humidity incubator at 37° C. for 7-10 days. Colonies are counted when the sizes reached greater than 50 cells per colony. […] Colonies are rinsed with water and the colonies counted and the fraction surviving expressed as the percentage of the number of control colonies.

T-47D cells [2] = assay: Caspase cascade activation (N-(Ac-DEVD)-N'-ethoxycarbonyl-R110 fluorogenic substrate) in T-47D cells; type: cell-based, Human; settings: 48 h incubation
How it was run: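 EC50 comes from sigmoidal fitting of the net RFU ratio over DMSO control, read at ex 485/em 530 nm 3 h after adding 14 μM Ac-DEVD-R110 in lysolecithin/DTT/PIPES pH 7.2 buffer. Compound (0.016-10 μM final) was applied to cells for 48 h at 37 °C beforehand.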

EC50 (T-47D cells [2]; Homo sapiens, T47D, caspase activation potency, read-out: T47 EC50): 433 nM
SMILES: COc1cccc(Nc2cc(C(F)(F)F)nc(-c3ccccn3)n2)c1 [Compound A, 4-(3-methoxyanilino)-2-(2-pyridinyl)-6-(trifluoromethyl)pyrimidine]
sub-diploid DNA content of cells (T-47D cells [1]; 0.2 μM, control 2%): 25%
G1 population (T-47D cells [1]; 200 nM, versus control cells): reduction
G2/M population (G2/M DNA content cells) (T-47D cells [1]; 200 nM, versus control cells): increase
IC50 (T47D cells): ~100 nM
T47 Ratio 48 hr (T-47D cells [2]; caspase activity: ratio of net RFU of test compound to control): 29.3

— patent publication US6716851B2, “Substituted 2-aryl-4-arylaminopyrimidines and analogs as activators or caspases and inducers of apoptosis and the use thereof” (Cytovia, Inc., priority 2000, dated 2004)
